Consider one molecule from ChEMBL document CHEMBL4808169, “Discovery of Potent and Fast-Acting Antimalarial Bis-1,2,4-triazines” (J Med Chem, 2021).

A short description of data set [1]: Drug metabolism in Sprague-Dawley rat urine assessed as M-32 metabolite formation at 3 mg/kg, iv by high-resolution mass spectrometry. The class given is ADME, organism-based. The conditions noted are these: in vivo.
Data set [2] can be described thus: Drug metabolism in human liver microsomes assessed as 3'-propoxy-5,5'-bi(1,2,4-triazin)-3-ol formation by LC-MS/MS(CID) analysis. The class given is ADME, Microsome. (Liver microsomes are a subcellular fraction often used to study metabolism.)
Data set [3] can be described thus: Metabolic stability of compound in Swiss mouse blood assessed as parent compound loss measured over 4 hrs by LC-MS analysis. The conditions noted are these: whole blood, read-out: Drug degradation. The class given is ADME, tissue-based.
A short description of data set [4]: AUC (0 to infinity) in Swiss mouse plasma at 2.7 mg/kg, iv measured up to 24 hrs. The class given is ADME, organism-based. Also on record: route intravenous, dose 2.7 mg/kg, time <=24.
Data set [5] is described as follows: Apparent permeability across apical to basolateral side in human Caco2 cells measured over 120 mins by LC-MS analysis. The class given is ADME, cell-based. The conditions noted are these: Caco-2. On the technique in general: Caco-2 monolayers are a common model of the intestinal barrier.
Data set [6] is described as follows: Drug metabolism in Sprague-Dawley rat urine assessed as oxygenated metabolite N-methyl-2-(3'-propoxy-5,5'-bi(1,2,4-triazin)-3-yloxy)ethanamine oxide formation at 3 mg/kg, iv by high-resolution mass spectrometry. The conditions noted are these: in vivo. The class given is ADME, organism-based.

As a reminder, the AUC(0-inf) is total exposure, with the tail of the curve extrapolated. A high value points to high exposure. What is called Papp A→B is how fast a substance crosses the layer from the apical side. For `CCCOc1nncc(-c2cnnc(OCCN(C)C)n2)n1`, the Drug metabolism result in data set [1] is recorded as “Metabolite_Detected”; in data set [2] it was “Metabolite_Notdetected”; in data set [6], “Metabolite_Detected”. The metabolised at 4 h in data set [3] is 23%. In data set [4], the AUC(0-inf) amounted to 0.36 µM·h. Also, the Papp A→B at 2 h in data set [5] amounted to 40 ×10⁻⁶ cm/s.
